The text below walks through data of patent US20190105260A1, “COMPOSITIONS AND METHODS TO PROMOTE WOUND HEALING” (The Regents of the University of California, priority 2016, published 2019).

One test has as its system NF-kB in keratinocytes. Description: Multiplex assay, NF-kB. As to conditions: 10 μM 5-HT for 6 hours, NHKs. It is filed as cell-based, human. As for the experimental part:
(§1) FIGS. 2A-C illustrate that serotonin (5-HT) increases keratinocyte migratory speed and re-epithelialization in a scratch wound ex vivo model, likely through the ERK-STAT3-NFkB pathway.
NHKs from 3 different donors were cultured in 100 mm dishes until 80% confluent and treated with 10 μM 5-HT for 6 hours. Protein lysates were collected and quantified with Bradford assays before proceeding according to manufacturer's protocol (Millipore Multiplex Assay (MILLIPLEX® MAP 48-680MAG). Results were normalized to total protein levels quantified separately by Bradford protein assays.

Test [1] concerns HaCaT human keratinocyte cell line. Description: Single cell migration assay. It is filed as cell-based. The note with it: HaCaT cells.
Text: as §1

In the next test the test system is BMSC. Description: BMSC proliferation in vitro. In kind it is cell-based. The note with it: 10 uM 5HT vs untreated BMSC; BMSC pooled from 3 donors.

On to `NCCc1c[nH]c2ccc(O)cc12` [serotonin], for which the NF-kB protein result in the test with NF-kB in keratinocytes is given as “increase”. Also, in test [1], the “keratinocyte migration (single cell migration)” value was “increases”. Moreover, the BMSC proliferation result in the test with BMSC is listed as “significantly increased”.
